{"source": "patent US7998978B2", "about": "(Pfizer Inc., priority 2006, dated 2011)"}
{"molecular_target": "T1, JNK1α1 (Homo sapiens, UniProt P45983)", "T1 construct": "catalytic domain containing amino acids 1-364 and N-terminal hexahistidine tag; hexahistidine (His6) (N); made in house; host or cells: E. coli BL21 (DE3)", "T1 sequence (P45983 1-364)": "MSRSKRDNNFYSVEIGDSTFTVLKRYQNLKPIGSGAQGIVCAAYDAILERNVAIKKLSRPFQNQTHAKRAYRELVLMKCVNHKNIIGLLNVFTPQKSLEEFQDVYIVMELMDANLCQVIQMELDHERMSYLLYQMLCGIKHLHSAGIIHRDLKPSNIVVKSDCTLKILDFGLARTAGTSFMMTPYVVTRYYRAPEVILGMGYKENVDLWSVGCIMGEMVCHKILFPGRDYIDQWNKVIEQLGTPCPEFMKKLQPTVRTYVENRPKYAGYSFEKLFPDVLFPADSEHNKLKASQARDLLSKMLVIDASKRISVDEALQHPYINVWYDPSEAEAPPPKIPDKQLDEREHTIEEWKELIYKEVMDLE", "assay": "Coupled spectrophotometric (PK/LDH) JNK1α1 assay: % inhibition and Ki determination", "type": "biochemical", "conditions": "JNK-1", "method": "% Inhibition and Ki Determination\nA coupled spectrophotometric assay, coupling JNK1α1 activity to the oxidation of β-NADH to NAD+ through the action of pyruvate kinase (PK) and lactic dehydrogenase (LDH), was used to determine the potency (percent inhibition at 1 or 10 μM or Ki) of compounds against JNK1α1 (Genbank Accession Number: L26318). […] The reaction was monitored by following the decrease in absorbance at 340 nm. The initial reaction rate was determined by the slope of the change in absorbance. To calculate percent inhibition the rate of the reaction in the presence of 1 or 10 μM compound was compared to the rate of the reaction with only DMSO multiplied by 100 percent. Note, the background rate of the above reaction in the presence of 10 μM PHA-00738186 was subtracted from all rates. […] Y=(−X+Eo−(Ki*(1+A/Km))+((X−Eo+(Ki*(1+A/Km)))^2+4*Eo*(Ki*(1+A/Km)))^0.5)*(Vm*A/(Km+A)/(2*Eo)) Formula: • Parameters: Eo, Ki, A, Km, Vo • Y is initial reaction velocity; • X is inhibitor concentration; • A is [ATP]; • Ki is inhibition constant; • Vm is Vmax; • Eo is total (initial) enzyme concentration; • Km is ATP Km;\nThe compounds were prepared in 100% DMSO at a 40× concentration. For percent inhibition experiments this would be 400 or 40 μM for 10 and 1 μM final concentration, respectively. For the Ki determination 3× serial dilutions were made starting at 4 mM (100 μM at 1×) in DMSO. A total of 11 concentrations were used for the analysis. The compounds were added to the reaction plate first. Next, a solution containing the HEPES, MgCl2, DTT, peptide substrate, NADH, PEP, PK/LDH enzyme, and JNK1α1—364nHis enzyme was added to the assay plate. The plate was incubated at room temperature for 15 minutes. Then the plate was warmed to 30° C. for 5 minutes. The reaction was initiated with the addition of ATP. The reaction was run in a plate reader at 30° C. for 20 minutes with absorbance readings made about every 10 seconds.\nThe column with “#” heading refers to compound number as exemplified in the Examples section. The column with “Ki” heading refers to Ki (in nM). The column with “% Inhibition” heading refers to percent inhibition of JNK-1 at 1 μM or 10 μM (in %) unless otherwise stated. ND refers to no data was taken.", "units": {"Ki": "nM"}}
{"smiles": "O=C(N[C@@H]1CCC[C@H]1O)c1cccc2cnc(N[C@H]3CC[C@H](O)CC3)nc12", "note": "(relative stereo) [Example 136, 2-[(trans-4-hydroxycyclohexyl)amino]-N-[(trans)-2-hydroxycyclopentyl]quinazoline-8-carboxamide]", "Ki": 257}
{"smiles": "CS(=O)(=O)N[C@H]1CC[C@H](Nc2ncc3cccc(C(=O)N[C@@H]4CCC[C@H]4O)c3n2)CC1", "note": "(relative stereo) [Example 137, N-[(trans)-2-hydroxycyclopentyl]-2-({trans-4-[(methylsulfonyl)amino]cyclohexyl}amino)quinazoline-8-carboxamide]", "Ki": 263}
{"smiles": "CC(=O)N[C@H]1CC[C@H](Nc2ncc3cccc(C(=O)N[C@@H]4CCC[C@H]4O)c3n2)CC1", "note": "(relative stereo) [Example 138, 2-{[trans-4-(acetylamino)cyclohexyl]amino}-N-[(trans)-2-hydroxycyclopentyl]quinazoline-8-carboxamide]", "Ki": 950}
{"smiles": "O=C(N[C@@H]1COC[C@H]1O)c1cccc2cnc(N[C@H]3CC[C@H](O)CC3)nc12", "note": "(relative stereo) [Example 139, 2-[(trans-4-hydroxycyclohexyl)amino]-N-[(trans)-4-hydroxytetrahydrofuran-3-yl]quinazoline-8-carboxamide]", "Ki": 16}
{"smiles": "CC(=O)N[C@H]1CC[C@H](Nc2ncc3cccc(C(=O)N[C@@H]4COC[C@H]4O)c3n2)CC1", "note": "(relative stereo) [Example 140, 2-{[trans-4-(acetylamino)cyclohexyl]amino}-N-[(trans)-4-hydroxytetrahydrofuran-3-yl]quinazoline-8-carboxamide]", "Ki": 52}
{"smiles": "CN([C@H]1CC[C@H](Nc2ncc3cccc(C(=O)N[C@@H]4COC[C@H]4O)c3n2)CC1)S(C)(=O)=O", "note": "(relative stereo) [Example 141, N-[(trans)-4-hydroxytetrahydrofuran-3-yl]-2-({trans-4-[methyl(methylsulfonyl)amino]cyclohexyl}amino)quinazoline-8-carboxamide]", "Ki": 29}
{"smiles": "CN([C@H]1CC[C@H](Nc2ncc3cccc(C(=O)N[C@@H]4CCC[C@H]4O)c3n2)CC1)S(C)(=O)=O", "note": "(relative stereo) [Example 142, N-[(trans)-2-hydroxycyclopentyl]-2-({trans-4-[methyl(methylsulfonyl)amino]cyclohexyl}amino)quinazoline-8-carboxamide]", "Ki": 226}
{"smiles": "COc1ccc(CC(=O)Nc2cc3cc(-c4cn[nH]c4)ccc3cn2)cc1", "note": "[Example 1, 2-(4-methoxyphenyl)-N-[6-(1H-pyrazol-4-yl)isoquinolin-3-yl]acetamide]", "Ki": 76}
{"smiles": "COc1ccc2[nH]c(C)c(CC(=O)Nc3cc4cc(-c5cn[nH]c5)ccc4cn3)c2c1", "note": "[Example 2, 2-(5-methoxy-2-methyl-1H-indol-3-yl)-N-[6-(1H-pyrazol-4-yl)isoquinolin-3-yl]acetamide]", "Ki": 77}
{"smiles": "COc1ccc(CC(=O)Nc2cc3cc(-c4cnn(C)c4)ccc3cn2)cc1", "note": "[Example 4, 2-(4-methoxyphenyl)-N-[6-(1-methyl-1H-pyrazol-4-yl)isoquinolin-3-yl]acetamide]", "Ki": 0.8}
{"smiles": "O=C(Cc1ccc2ccccc2c1)Nc1cc2cc(-c3cn[nH]c3)ccc2cn1", "note": "[Example 5, 2-(2-naphthyl)-N-[6-(1H-pyrazol-4-yl)isoquinolin-3-yl]acetamide]", "Ki": 79}
{"smiles": "O=C(Cc1ccccc1)Nc1cc2cc(-c3cn[nH]c3)ccc2cn1", "note": "[Example 6, 2-phenyl-N-[6-(1H-pyrazol-4-yl)isoquinolin-3-yl]acetamide]", "Ki": 39}
{"smiles": "O=C(CC1CCOCC1)Nc1cc2cc(-c3cn[nH]c3)ccc2cn1", "note": "[Example 7, N-[6-(1H-pyrazol-4-yl)isoquinolin-3-yl]-2-(tetrahydro-2H-pyran-4-yl)acetamide]", "Ki": 20}
{"smiles": "CC(C(=O)Nc1cc2cc(-c3cn[nH]c3)ccc2cn1)c1ccccc1", "note": "(stereo not shown) [Example 8, 2-phenyl-N-[6-(1H-pyrazol-4-yl)isoquinolin-3-yl]propanamide]", "Ki": "> 50"}
{"smiles": "O=C(CNC(=O)c1ccccc1)Nc1cc2cc(-c3cn[nH]c3)ccc2cn1", "note": "[Example 9, N-(2-oxo-2-{[6-(1H-pyrazol-4-yl)isoquinolin-3-yl]amino)ethyl)benzamide]", "Ki": 17}
{"smiles": "CC(=O)OCC(C)(C)CC(=O)Nc1cc2cc(-c3cn[nH]c3)ccc2cn1", "note": "[Example 10, 2,2-dimethyl-4-oxo-4-{[6-(1H-pyrazol-4-yl)isoquinolin-3-yl]amino)butyl acetate]", "Ki": 42}
{"smiles": "CC(C)CC(=O)Nc1cc2cc(-c3cn[nH]c3)ccc2cn1", "note": "[Example 11, 3-methyl-N-[6-(1H-pyrazol-4-yl)isoquinolin-3-yl]butanamide]", "Ki": 26}
{"smiles": "O=C(CCc1cc(Cl)no1)Nc1cc2cc(-c3cn[nH]c3)ccc2cn1", "note": "[Example 12, 3-(3-chloroisoxazol-5-yl)-N-[6-(1H-pyrazol-4-yl)isoquinolin-3-yl]propanamide]", "Ki": 29}
{"smiles": "O=C(CC1CCS(=O)(=O)C1)Nc1cc2cc(-c3cn[nH]c3)ccc2cn1", "note": "(stereo not shown) [Example 13, 2-(1,1-dioxidotetrahydro-3-thienyl)-N-[6-(1H-pyrazol-4-yl)isoquinolin-3-yl]acetamide]", "Ki": 36}
{"smiles": "O=C(Nc1cc2cc(-c3cn[nH]c3)ccc2cn1)C1NCc2ccccc21", "note": "(stereo not shown) [Example 14, N-[6-(1H-pyrazol-4-yl)isoquinolin-3-yl]isoindoline-1-carboxamide]", "Ki": "> 50"}
{"smiles": "CC(=O)N1CCC(C(=O)Nc2cc3cc(-c4cn[nH]c4)ccc3cn2)CC1", "note": "[Example 15, 1-acetyl-N-[6-(1H-pyrazol-4-yl)isoquinolin-3-yl]piperidine-4-carboxamide]", "Ki": 24}
{"smiles": "CC(C)C(=O)Nc1cc2cc(-c3cn[nH]c3)ccc2cn1", "note": "[Example 16, 2-methyl-N-[6-(1H-pyrazol-4-yl)isoquinolin-3-yl]propanamide]", "Ki": 31}
{"smiles": "O=C(Nc1cc2cc(-c3cn[nH]c3)ccc2cn1)c1ccccc1", "note": "[Example 17, N-[6-(1H-pyrazol-4-yl)isoquinolin-3-yl]benzamide]", "Ki": "> 30"}
{"smiles": "O=C(CCc1cn2cccnc2n1)Nc1cc2cc(-c3cn[nH]c3)ccc2cn1", "note": "[Example 18, 3-imidazo[1,2-a]pyrimidin-2-yl-N-[6-(1H-pyrazol-4-yl)isoquinolin-3-yl]propanamide]", "Ki": 32}
{"smiles": "Cc1cc(C(=O)NCC(=O)Nc2cc3cc(-c4cn[nH]c4)ccc3cn2)no1", "note": "[Example 19, 5-methyl-N-(2-oxo-2-{[6-(1H-pyrazol-4-yl)isoquinolin-3-yl]amino}ethyl)isoxazole-3-carboxamide]", "Ki": 13}
{"smiles": "COc1ccc(CCC(=O)Nc2cc3cc(-c4cn[nH]c4)ccc3cn2)cc1", "note": "[Example 20, 3-(4-methoxyphenyl)-N-[6-(1H-pyrazol-4-yl)isoquinolin-3-yl]propanamide]", "Ki": 44}
{"smiles": "Cc1ccc2c(c1)CCC2C(=O)Nc1cc2cc(-c3cn[nH]c3)ccc2cn1", "note": "(stereo not shown) [Example 21, 5-methyl-N-[6-(1H-pyrazol-4-yl)isoquinolin-3-yl]indane-1-carboxamide]", "Ki": "> 50"}
{"smiles": "COc1ccc2c(c1OC)CC[C@@H]2C(=O)Nc1cc2cc(-c3cn[nH]c3)ccc2cn1", "note": "[Example 22, (S)-4,5-dimethoxy-N-[6-(1H-pyrazol-4-yl)isoquinolin-3-yl]indane-1-carboxamide]", "Ki": "> 50"}
{"smiles": "COc1ccc2c(c1OC)CC[C@H]2C(=O)Nc1cc2cc(-c3cn[nH]c3)ccc2cn1", "note": "[Example 23, (R)-4,5-dimethoxy-N-[6-(1H-pyrazol-4-yl)isoquinolin-3-yl]indane-1-carboxamide]", "Ki": 2}
{"smiles": "O=C(Cc1ccc(Oc2ccnc3ccsc23)cc1)Nc1cc2cc(-c3cn[nH]c3)ccc2cn1", "note": "[Example 24, N-[6-(1H-pyrazol-4-yl)isoquinolin-3-yl]-2-[4-(thieno[3,2-b]pyridin-7-yloxy)phenyl]acetamide]", "Ki": 25}
{"smiles": "O=C(CN1Cc2ccccc2C1=O)Nc1cc2cc(-c3cn[nH]c3)ccc2cn1", "note": "[Example 25, 2-(1-oxo-1,3-dihydro-2H-isoindol-2-yl)-N-[6-(1H-pyrazol-4-yl)isoquinolin-3-yl]acetamide]", "Ki": 14}
{"smiles": "O=C(COc1ccc2ccccc2c1)Nc1cc2cc(-c3cn[nH]c3)ccc2cn1", "note": "[Example 26, 2-(2-naphthyloxy)-N-[6-(1H-pyrazol-4-yl)isoquinolln-3-yl]acetamide]", "Ki": 7}
{"smiles": "COCCC(=O)Nc1cc2cc(-c3cn[nH]c3)ccc2cn1", "note": "[Example 27, 3-methoxy-N-[6-(1H-pyrazol-4-yl)isoquinolin-3-yl]propanamide]", "Ki": 4}
{"smiles": "COC1CCC(C(=O)Nc2cc3cc(-c4cn[nH]c4)ccc3cn2)CC1", "note": "(stereo not shown) [Example 28, 4-methoxy-N-[6-(1H-pyrazol-4-yl)isoquinolin-3-yl]cyclohexanecarboxamide]", "Ki": 32}
